Results: US20250205350A1, “Antibody-Drug Conjugates and Uses Thereof” (Vivasor, Inc., priority 2022, published 2025)

Columns and labels:
SkBr-3 (Her2+) = assay: In vitro cell viability (CellTiter-Glo) of camptothecin derivatives in SkBr-3; format: cell-based, human; settings: 120-hour assay
Description: (§1) The in vitro efficacies of camptothecin derivatives were evaluated using the following human cancer cell lines: SkBr-3 (Her2+) and MDA-MB-468 (HER2−), purchased from the American Type Culture Collection (ATCC; Manassas, VA) and were routinely cultured in DMEM/F-12 medium (Catalog #10-090-CV; Corning) supplemented with 10% fetal bovine serum (FBS; Catalog #MT35011CV; Corning) and 1× Penicillin-Streptomycin (Catalog #30-002-CI; Corning) and maintained at 37° C. with 5% CO2 in a humidified environment.
(§2) Tumor cells were harvested by detachment with cell stripper. Viable cell counts were made by Trypan blue exclusion using a Countess or Countess II automated cell counter. Cell Viability Assay: All cells were harvested and seeded into 384-well white wall clear bottom plates (Catalog #3765; Corning) at a density of 875 cells/well in DMEM/F-12 medium supplemented with 10% fetal bovine serum and 1× Penicillin-Streptomycin (complete growth media). Plates were maintained at 37° C. for 4-6 hours to allow cells to adhere to the plate. The outer wells of plates contained complete growth medium only and were used for background subtraction for the cell viability assay. Working solutions of test articles were prepared at 2× final concentrations with 5-fold serial dilutions in complete growth medium. Cell treatment was performed in triplicates and maintained at 37° C. for 120-hour assay. After treatment, cell viability was determined by CellTiter-Glo 2.0 assay (Catalog #G9243; Promega; Madison, WI, USA) based on the manufacturer's instructions. CellTiter Glo reagent reacts with ATP in metabolically active cells to give a luminescent readout that is directly proportional to the number of viable cells. Briefly, plates were removed from the incubator and equilibrated to room temperature before addition of CellTiter Glo reagent. Luminescence was measured using a Tecan Spark microplate reader (Tecan; Mannedorf, Switzerland).
(§3) For Cytotoxicity assays, raw luminescence data was background subtracted with average luminescence from the outer wells containing medium only and normalized to untreated controls using Excel (Microsoft; […]). Dose-response relationships and EC50 values were determined based on non-linear regression analysis of normalized data fit to a four-parameter logistic equation using GraphPad Prism 8.0.

MDA-MB-468 (HER2−) = assay: In vitro cell viability (CellTiter-Glo) of camptothecin derivatives in MDA-MB-468; format: cell-based, human; settings: 120-hour assay
Description: as §1, §2, §3

HER2-positive SkBr-3 = assay: In vitro cell viability (CellTiter-Glo) of anti-HER2 ADCs in SkBr-3; format: cell-based; settings: Homo sapiens, SK-BR-3, 120 h, Table 6; 120-hour assay
Description: as §1, with “ADCs” for “The in vitro efficacies of camptothecin derivatives”, “HER2-positive SkBr-3, HER2-positive NCI-N87,” for “SkBr-3 (Her2+)”, “HER2-negative MDA-MB-468,” for “MDA-MB-468 (HER2−),”, “#[…];” for “#10-090-CV;”
(§4) Tumor cells were harvested by detachment with cell stripper. Viable cell counts were made by Trypan blue exclusion using a Countess or Countess II automated cell counter. […] After treatment, cell viability was determined by CellTiter-Glo 2.0 assay (Catalog #G9243; Promega; Madison, WI, USA) based on the manufacturer's instructions. CellTiter Glo reagent reacts with ATP in metabolically active cells to give a luminescent readout that is directly proportional to the number of viable cells. […] Luminescence was measured using a Tecan Spark microplate reader (Tecan; Mannedorf, Switzerland).
(§5) For Cytotoxicity assays, raw luminescence data was background subtracted with average luminescence from the outer wells containing medium only and normalized to untreated controls using Excel (Microsoft; Albuquerque, NM). […]

HER2-negative MDA-MB-468 = assay: In vitro cell viability (CellTiter-Glo) of anti-HER2 ADCs in MDA-MB-468; format: cell-based; settings: Homo sapiens, MDA-MB-468, 120 h, 120-hour assay
Description: as §1, with “ADCs” for “The in vitro efficacies of camptothecin derivatives”, “HER2-positive SkBr-3, HER2-positive NCI-N87,” for “SkBr-3 (Her2+)”, “HER2-negative MDA-MB-468,” for “MDA-MB-468 (HER2−),”, “#[…];” for “#10-090-CV;”
as §4, §5

[1] = Table 4A, derivatives as TFA salt, exatecan mesylate
[2] = Homo sapiens, SK-BR-3, 120 h, Table 4A, derivatives as TFA salt, exatecan mesylate
[3] = Homo sapiens, MDA-MB-468, 120 h, Table 4A, derivatives as TFA salt, exatecan mesylate
[4] = Homo sapiens, SK-BR-3, 120 h, Table 4B
[5] = Homo sapiens, MDA-MB-468, 120 h, Table 4B

CC[C@]1(O)C(=O)OCc2c1cc1n(c2=O)Cc2c-1nc1cc(F)c(C)c3c1c2[C@H](NC(=O)c1cccc(N)n1)CC3 [Compound L078-029] gave an EC50 (SkBr-3 (Her2+); [1]) of 0.8 nM and an EC50 (MDA-MB-468 (HER2−); [1]) of 2 nM.
Work on CC[C@]1(O)C(=O)OCc2c1cc1n(c2=O)Cc2c-1nc1cc(F)c(C)c3c1c2[C@H](NC(=O)C1CNC1)CC3 [Compound L078-030] yielded an EC50 (SkBr-3 (Her2+); [2]) of 49.6 nM and an EC50 (MDA-MB-468 (HER2−); [3]) of 57.2 nM.
CC[C@]1(O)C(=O)OCc2c1cc1n(c2=O)Cc2c-1nc1cc(F)c(C)c3c1c2[C@H](NC(=O)[C@H]1CCN1)CC3 [Compound L078-042] was tested, and the EC50 (SkBr-3 (Her2+); [2]) was 2.3 nM and the EC50 (MDA-MB-468 (HER2−); [3]) was 5.7 nM.
For CC[C@]1(O)C(=O)OCc2c1cc1n(c2=O)Cc2c-1nc1cc(F)c(C)c3c1c2[C@H](NC(=O)[C@@H]1CCN1)CC3 [Compound L078-043], the EC50 (SkBr-3 (Her2+); [2]) was 1.8 nM and the EC50 (MDA-MB-468 (HER2−); [3]) was 3.7 nM.
CC[C@]1(O)C(=O)OCc2c1cc1n(c2=O)Cc2c-1nc1cc(F)c(C)c3c1c2[C@H](NC(=O)[C@H]1CNCCO1)CC3 [Compound L078-046] showed an EC50 (SkBr-3 (Her2+); [2]) of 5.5 nM and an EC50 (MDA-MB-468 (HER2−); [3]) of 5.7 nM.
In the case of CC[C@]1(O)C(=O)OCc2c1cc1n(c2=O)Cc2c-1nc1cc(F)c(C)c3c1c2[C@H](NC(=O)[C@@H]1CNCCO1)CC3 [Compound L078-047], the EC50 (SkBr-3 (Her2+); [2]) is reported as 11 nM and the EC50 (MDA-MB-468 (HER2−); [3]) is reported as 15.7 nM.
CC[C@]1(O)C(=O)OCc2c1cc1n(c2=O)Cc2c-1nc1cc(F)c(C)c3c1c2[C@H](NC(=O)[C@@H]1COCCN1)CC3 [Compound L078-048] was tested, and the EC50 (SkBr-3 (Her2+); [2]) was 5.6 nM and the EC50 (MDA-MB-468 (HER2−); [3]) was 5.7 nM.
CC[C@]1(O)C(=O)OCc2c1cc1n(c2=O)Cc2c-1nc1cc(F)c(C)c3c1c2[C@H](NC(=O)[C@H]1COCCN1)CC3 [Compound L078-049] showed an EC50 (SkBr-3 (Her2+); [2]) of 2.3 nM and an EC50 (MDA-MB-468 (HER2−); [3]) of 4.7 nM.
CC[C@]1(O)C(=O)OCc2c1cc1n(c2=O)Cc2c-1nc1cc(F)c(C)c3c1c2[C@H](NC(=O)[C@@H]1C[C@@H](F)CN1)CC3 [Compound L078-051] showed an EC50 (SkBr-3 (Her2+); [2]) of 2.8 nM and an EC50 (MDA-MB-468 (HER2−); [3]) of 5.4 nM.
In the case of CC[C@]1(O)C(=O)OCc2c1cc1n(c2=O)Cc2c-1nc1cc(F)c(C)c3c1c2[C@H](NC(=O)[C@H]1CCCN1)CC3 [Compound L078-065], the EC50 (SkBr-3 (Her2+); [2]) is reported as 3.2 nM and the EC50 (MDA-MB-468 (HER2−); [3]) is reported as 6 nM.
For CC[C@]1(O)C(=O)OCc2c1cc1n(c2=O)Cc2c-1nc1cc(F)c(C)c3c1c2[C@H](NC(=O)[C@@H]1CCCN1)CC3 [Compound L078-066], the EC50 (SkBr-3 (Her2+); [2]) was 3 nM and the EC50 (MDA-MB-468 (HER2−); [3]) was 5.6 nM.
Work on CC[C@]1(O)C(=O)OCc2c1cc1n(c2=O)Cc2c-1nc1cc(F)c(C)c3c1c2[C@H](NC(=O)C1CCNCC1)CC3 [Compound L078-081] yielded an EC50 (SkBr-3 (Her2+); [1]) of 163 nM and an EC50 (MDA-MB-468 (HER2−); [1]) of 81.4 nM.
For CC[C@]1(O)C(=O)OCc2c1cc1n(c2=O)Cc2c-1nc1cc(F)c(C)c3c1c2[C@H](NC(=O)C1(N)COC1)CC3 [Compound L078-088], the EC50 (SkBr-3 (Her2+); [4]) was 2.72 nM and the EC50 (MDA-MB-468 (HER2−); [5]) was 7.32 nM.
CC[C@]1(O)C(=O)OCc2c1cc1n(c2=O)Cc2c-1nc1cc(F)c(C)c3c1c2[C@H](NC(=O)C1(N)CCOC1)CC3 (stereo partly drawn) [Compound L078-149] gave an EC50 (SkBr-3 (Her2+); [4]) of 7.71 nM and an EC50 (MDA-MB-468 (HER2−); [5]) of 5.01 nM.
In the case of CC[C@]1(O)C(=O)OCc2c1cc1n(c2=O)Cc2c-1nc1cc(F)c(C)c3c1c2[C@H](NC(=O)C1(N)CCOCC1)CC3 [Compound L078-150], the EC50 (MDA-MB-468 (HER2−); Table 4B) is reported as 3.01 nM.
In the case of CC[C@@]1(O)C(=O)OCc2c1cc1n(c2=O)Cc2c-1nc1cc(F)c(C)c3c1c2[C@@H](NC(=O)CO)CC3 [Dxd, reference compound], the EC50 (SkBr-3 (Her2+); [2]) is reported as 2.2 nM, the EC50 (SkBr-3 (Her2+); [4]) is reported as 3.66 nM and the EC50 (MDA-MB-468 (HER2−); [3]) is reported as 2 nM. It also gave an EC50 (MDA-MB-468 (HER2−); [5]) of 3.16 nM, an EC50 (HER2-positive SkBr-3) of 3.84 nM and an EC50 (HER2-negative MDA-MB-468; Table 5) of 2.55 nM. For the same molecule, the EC50 (HER2-negative MDA-MB-468; Table 6) was 2.57 nM.
CC[C@@]1(O)C(=O)OCc2c1cc1n(c2=O)Cc2c-1nc1cc(F)c(C)c3c1c2[C@@H](N)CC3 [Exatecan, exatecan, reference compound] was tested, and the EC50 (SkBr-3 (Her2+); [2]) was 0.69 nM, the EC50 (MDA-MB-468 (HER2−); [3]) was 1.1 nM and the EC50 (MDA-MB-468 (HER2−); [5]) was 1.99 nM.
